Marks after values point to notes of the source that are not given here.

The subject of series [1] is Enterococcus faecalis (ATCC 4083), Streptococcus intermedius (ATCC 31412), Fusobacterium nucleatum (ATCC 49256), Porphyromonas gingivalis (ATCC 33277). The series is described as follows: MIC and MBC by E-test. The series is classed as cell-based. The procedure:
Four common endodontic pathogens were selected for the study: Enterococcus faecalis (ATCC 4083), Streptococcus intermedius (ATCC 31412), Fusobacterium nucleatum (ATCC 49256), and Porphyromonas gingivalis (ATCC 33277). […] Then, each microorganism was cultured in their recommended broth as follow; brain heart infusion (BHI) broth for […], Todd Hewitt broth for S. intermedius, chopped meat for F. nucleatum, and tryptic soy broth supplemented with hemin and vitamin K for P. gingivalis. […] One-way analysis of variance (ANOVA), followed by the Tukey's HSD (with p<0.05) was used for the four microorganisms to compare: A) the MICs and MBCs among tested antibiotics, B) the difference between baseline CFUs and post-treatment CFUs for different antibiotics/scaffold formulations and, C) the changes in color among the groups.

Series [2] in a line: Crown color change measurement (tooth discoloration, CIE L*a*b*). Details: species or system human. An excerpt: (§1) One hundred and twenty intact single rooted permanent human teeth were collected for the study. All teeth were autoclaved, then access cavities were prepeared and the canal instrumented to size 40/0.04, with saline irrigation. Teeth were autoclaved again to ensure absence of bacteria prior to bacterial inoculation. The root canals were then inoculated with the bacterial mixture, using syringe delivery, with the 30-gauge needle close to the working length. Access cavities were then sealed with a sterile sponge and Cavit (3M ESPE). All teeth were then incubated in the anaerobic chamber. The suspensions were replenished weekly for 3 weeks to allow for biofilm formation and maturation (14).
Crown color was measured as described previously (16). All color measurements were taken in a dark room inside the anaerobic chamber. The instrument was calibrated before the measurement in each group. • The mean baseline color measurements were taken prior to filling the root canal with the antibiotics (C0) and then at 1 week (C1), 2 weeks (C2), and 3 weeks (C3). The results were expressed in the CIE L*a*b* system (L* [black-white], a* [red-green] and b* [blue-yellow]). • Mean color change (ΔE) value was calculated using the following formula; […].
One-way analysis of variance (ANOVA), followed by the Tukey's HSD (with p<0.05) was used for the four microorganisms to compare: A) the MICs and MBCs among tested antibiotics, B) the difference between baseline CFUs and post-treatment CFUs for different antibiotics/scaffold formulations and, C) the changes in color among the groups.

In series [3] the test system is polymicrobial biofilm of E. faecalis, S. intermedius, F. nucleatum and P. gingivalis in root canals. The series is described as follows: Post-treatment CFUs in ex vivo root canals inoculated with bacterial mixture (3-week biofilm), dressed with antibiotics/hydrogel scaffolds. The series is classed as cell-based. Particulars: for samples with bacterial growth: n=15 per group; for Log10 CFUs: 1 week dressing.
Source text: as §1

Setting [4] is: comparison among tested antibiotics, P<0.05.

`O=C(O)c1cn(C2CC2)c2cc(N3CCNCC3)c(F)cc2c1=O` [Ciprofloxacin, ciprofloxacin]: in series [1] (setting [4]), the “Minimum Bactericidal Concentration (MBC)” value was “significantly higher” and the “Minimum Inhibitory Concentration (MIC)” value was “significantly higher”.
`CN(C)c1cc(NC(=O)CNC(C)(C)C)c(O)c2c1C[C@H]1C[C@H]3[C@H](N(C)C)C(O)=C(C(N)=O)C(=O)[C@@]3(O)C(O)=C1C2=O` [Tigecycline]: the “mean color change (ΔE)” value in series [2] (1 mg/mL, one week post-treatment) came out at 6.9±1.9; in series [2] (1 mg/ml, 2 and 3 weeks post-treatment), 8.4±2.0. Also, in series [2] (greater than 1 mg/ml to about 10 mg/mL, after applying an inner bonding within the coronal endodontic access preparation), the tooth discoloration result was “no detectable discoloration”. Further, the “samples with bacterial growth” value in series [3] (0.1 mg/mL) turned out to be 93.3%; in series [3] (1 mg/mL), 33.3%. The “Log10 CFUs” value is recorded as 3.38 ^b in series [3] (0.1 mg/ml in hydrogel scaffold) and 0.93 ^c in series [3] (1 mg/ml in hydrogel scaffold).
For the compound `Cc1ncc([N+](=O)[O-])n1CCO` [metronidazole], the inhibition zone result in series [1] (against any of tested microorganisms) is listed as “no inhibition zone”.
